Experimental data as given in patent US9969699B2, “Cancer cell growth inhibitor, anticancer agent, and method for screening same, as well as novel compound” (Microbial Chemistry Research Foundation, priority 2014, dated 2018).

Experiments:
[1] = tested on: NIH3T3/EGFRWT cell-transplanted tumor
Description: Note that, “*” denotes t<0.05.

[2] = Acute toxicity test, oral administration; assay type: in vivo, ICR mice; conditions: orally once; for Organ weight Heart / Organ weight Kidney (Left) / Organ weight Kidney (Right) / Organ weight Liver / Organ weight Lung / Organ weight Spleen / Organ weight Thymus: two weeks after
Description: Two-weeks after the compounds represented by the Structural Formula (1) at the above concentrations were orally administered, the mice were dissected and organs thereof were weighed.
Two-weeks after the compounds represented by the Structural Formula (8) at the above concentrations were orally administered, the mice were dissected and organs thereof were weighed.

U87MG cells = assay: 3D cell culture step, EGFR vIII gene non-expressing brain tumor cells U87MG; assay type: cell-based; conditions: Test Example 3, U87MG cells
Method: The following 3 brain tumor cells were used as the EGFR vIII gene non-expressing cells. • U251 cells (available from ATCC) • U87MG cells (available from ATCC) • KS-1 cells (available from ATCC) <3D Cell Culture Step>
After the 3 days of culture, the number of viable cells was counted by […]-GLO (trademark) Luminescent Cell Viability Assay (available from Promega), which was a method for quantitating ATP in viable cells. A cell proliferation inhibition rate in the 3D cell culture step was calculated according to (Expression 3) below. Cell proliferation inhibition rate(%)=(1−X/Y)×100 (Expression 3)
In the (Expression 3), X denotes the number of viable cells when the test substance was added, and Y denotes the number of viable cells when the test substance was not added.

Nc1ccc(Br)cc1-c1nc2ccccc2[nH]c1=O [Structural Formula (1), 3-(2-amino-5-bromophenyl)-2(1H)-quinoxalinone]
tumor proliferation inhibiting activity ([1]; 30 mg/kg intraperitoneally once a day, day 1 to day 17): exhibited the tumor proliferation inhibiting activity
tumor proliferation inhibiting activity compared with Gefitinib ([1]; 30 mg/kg intraperitoneally vs Gefitinib 200 mg/kg orally): comparable
Organ weight Heart ([2]; 0.098 mg/kg/0.2 mL): 124.0 mg
Organ weight Kidney (Left) ([2]; 0.098 mg/kg/0.2 mL): 183.0 mg
Organ weight Kidney (Right) ([2]; 0.098 mg/kg/0.2 mL): 191.0 mg
Organ weight Liver ([2]; 0.098 mg/kg/0.2 mL): 1524.0 mg
Organ weight Lung ([2]; 0.098 mg/kg/0.2 mL): 163.0 mg
Organ weight Spleen ([2]; 0.098 mg/kg/0.2 mL): 132.0 mg
Organ weight Heart ([2]; 6.25 mg/kg/0.2 mL): 122.0 mg
Organ weight Lung ([2]; 6.25 mg/kg/0.2 mL): 169.0 mg
Organ weight Thymus ([2]; 6.25 mg/kg/0.2 mL): 112.0 mg
Organ weight Heart ([2]; 12.5 mg/kg/0.2 mL): 143.0 mg
Organ weight Kidney (Left) ([2]; 12.5 mg/kg/0.2 mL): 177.0 mg
Organ weight Kidney (Right) ([2]; 12.5 mg/kg/0.2 mL): 177.0 mg
Organ weight Liver ([2]; 12.5 mg/kg/0.2 mL): 1327.0 mg
Organ weight Lung ([2]; 12.5 mg/kg/0.2 mL): 191.0 mg
Organ weight Spleen ([2]; 12.5 mg/kg/0.2 mL): 173.0 mg
Organ weight Thymus ([2]; 12.5 mg/kg/0.2 mL): 99.0 mg
Organ weight Heart ([2]; 25 mg/kg/0.2 mL): 116.0 mg
Organ weight Kidney (Left) ([2]; 25 mg/kg/0.2 mL): 157.0 mg
Organ weight Kidney (Right) ([2]; 25 mg/kg/0.2 mL): 169.0 mg
Organ weight Liver ([2]; 25 mg/kg/0.2 mL): 1290.0 mg
Organ weight Lung ([2]; 25 mg/kg/0.2 mL): 176.0 mg
Organ weight Spleen ([2]; 25 mg/kg/0.2 mL): 100.0 mg
Organ weight Thymus ([2]; 25 mg/kg/0.2 mL): 87.0 mg
Organ weight Heart ([2]; 50 mg/kg/0.4 mL): 115.0 mg
Organ weight Kidney (Left) ([2]; 50 mg/kg/0.4 mL): 150.0 mg
Organ weight Kidney (Right) ([2]; 50 mg/kg/0.4 mL): 155.0 mg
Organ weight Liver ([2]; 50 mg/kg/0.4 mL): 1403.0 mg
Organ weight Lung ([2]; 50 mg/kg/0.4 mL): 166.0 mg
Organ weight Spleen ([2]; 50 mg/kg/0.4 mL): 117.0 mg
Organ weight Thymus ([2]; 50 mg/kg/0.4 mL): 95.0 mg
toxicity ([2]; 0.098 to 50 mg/kg, observed 2 weeks): no significant toxicity
inhibiting activity against scaffold-independent proliferation capacity (U87MG cells): did not exhibit an inhibiting activity
